Several values for one entry are separate records, joined by “and”; a condition that tells them apart may be missing. Equal entries are not always repeated.

By IC50 is commonly meant the midpoint of a concentration-inhibition curve. By Km is commonly meant the substrate concentration at which the rate is half of its maximum.

For data set [1], the target named is T1, recombinant OCTN1 (Homo sapiens, UniProt Q9H015).
T1 construct: made in house; host or cells: E. coli
T1 sequence (Q9H015 1-551): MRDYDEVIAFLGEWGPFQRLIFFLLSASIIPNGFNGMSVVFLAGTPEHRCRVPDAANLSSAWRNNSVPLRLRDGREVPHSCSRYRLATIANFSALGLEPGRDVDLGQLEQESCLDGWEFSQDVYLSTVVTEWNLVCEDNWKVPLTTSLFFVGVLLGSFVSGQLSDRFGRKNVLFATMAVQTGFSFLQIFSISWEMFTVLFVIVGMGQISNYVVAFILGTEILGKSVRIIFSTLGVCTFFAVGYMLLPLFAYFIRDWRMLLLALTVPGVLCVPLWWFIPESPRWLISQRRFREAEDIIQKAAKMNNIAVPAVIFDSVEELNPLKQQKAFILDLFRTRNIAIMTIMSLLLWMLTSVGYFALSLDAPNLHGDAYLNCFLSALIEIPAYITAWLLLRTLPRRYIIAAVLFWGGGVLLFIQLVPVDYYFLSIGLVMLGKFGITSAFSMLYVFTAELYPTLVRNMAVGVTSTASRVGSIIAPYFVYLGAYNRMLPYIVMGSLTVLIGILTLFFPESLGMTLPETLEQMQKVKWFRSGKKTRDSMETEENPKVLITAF
Put plainly: [3H]-acetylcholine uptake in proteoliposomes reconstituted with recombinant OCTN1 over-expressed in E. coli. The data set is classed as biochemical. Conditions: for IC50: [3H]-acetylcholine uptake 0.1 mM, 20 min. On the procedure:
(§1) OCTN1 over-expressed in E. coli and purified as previously described was used for reconstitution in liposomes. The composition of the initial mixture used for reconstitution (except when differently indicated) was 200 µL of the purified protein (5 µg protein in 0.05% DDM), CHS at the indicated concentrations solubilized in 240 µL of 20 mM Tris/HCl (pH 7.5) and 5% Triton X-100 or buffer and Triton X-100 alone in the case of samples without CHS, 120 µL of 10% egg yolk phospholipids in the form of sonicated liposomes prepared as previously described, 16 mM ATP and (where indicated) in a final volume of 700 μL. The purified OCTN1 inserted in liposomal membrane by removing the detergent from mixed micelles containing detergent, protein, and phospholipids with Amberlite XAD-4 in a batch-wise procedure. Where indicated, proteoliposome internal volume was measured using a colorimetric phosphate method. In detail, 30 mM dipotassium phosphate (K2HPO4) was added to the reconstitution mixture. After elution from Sephadex G75 pre-equilibrated with 5 mM Tris/HCl (pH 7.5), 100 µL of sample were used for the colorimetric reaction. A solution containing 150 µL of 10% SDS was used to solubilize liposomal membranes. Then, 700 µL of a solution prepared with 10 mM hexammonium heptamolybdate 4-hydrate, 0.3 mM H2SO4 and 0.1 mM FeSO4 was added starting an incubation of 30 min in the dark. At the end, absorbance from each sample was measured at 578 nm. Internal volume in µL was derived from nmol of phosphate incorporated in liposomes.
(§2) Proteoliposomes (550 µL) were passed through a Sephadex G-75 column (0.7 cm diameter x 15 cm height) pre-equilibrated with 5 mM Tris/HCl (pH 7.5). The first 550 µL turbid eluate was collected and divided in aliquots (samples) of 100 µL each. Transport was started by adding 0.1 mM [^14C]-TEA or [^3H]-acetylcholine to the proteoliposome samples and stopped by adding 0.5 mM HgCl2 at the desired time interval. In control samples, the inhibitor was added at time zero according to the inhibitor stop method. Finally, each sample of proteoliposomes (100 µL) was passed through a Sephadex G-75 column (0.6 cm diameter × 8 cm height) in order to separate the external from the internal radioactivity. Liposomes were eluted with 1 mL of 50 mM NaCl and collected in 4ml of scintillation mixture, vortexed, and counted. The experimental values were corrected by subtracting the respective controls. The uptake time course data were interpolated using a first order rate equation from which rate constants were derived as the product of k (the first order rate constant) and the transport at the equilibrium. Data from dose-response experiments were fitted into an IC50 equation. For kinetic experiments the initial rate of transport expressed as nmol ⋅ min^−1 ⋅ mg protein^−1, was measured by stopping the reaction after 10 min, i.e., within the initial linear range of [^14C]-TEA or [^3H]-acetylcholine uptake into the proteoliposomes. Kinetic constants were estimated from interpolation of the experimental data into a Lineweaver–Burk equation. The Grafit (version 5.0.3) software was used for calculations.

In data set [2] the target is T1, recombinant OCTN1. Put plainly: [14C]-TEA uptake in proteoliposomes reconstituted with recombinant OCTN1 over-expressed in E. coli. In kind it is biochemical. The following applies: for IC50: [14C]-TEA uptake 0.1 mM, 20 min. On the procedure: as §1
(§3) Proteoliposomes reconstituted with the recombinant OCTN1 and added or not with CHS were incubated with MβCD as above described and then, MβCD was removed by chromatography on Sephadex G-75 column as described in Section 4.7.
as §2

A further data set concerns the target T2, native human OCTN1 (Homo sapiens, UniProt Q9H015).
T2 construct: the native human OCTN1, the protein extracted from HeLa cells was exploited; endogenous in cells; host or cells: HeLa cells (Triton X-100 extract reconstituted in proteoliposomes)
T2 sequence (Q9H015 1-551): T1 sequence (Q9H015 1-551)
Put plainly: [14C]-TEA uptake in proteoliposomes reconstituted with native OCTN1 extracted from HeLa cells. The data set is classed as biochemical. Conditions: 0.1 mM [14C]-TEA. The protocol:
HeLa cells pellet was treated with 150 µL TX-100 10%. After vortexing cells have been incubated 30 min on ice and then centrifuged 10 min 12.000× g at 4 °C. The cell membrane extract (supernatant) was used for the reconstitution. 30 µL supernatant were included to the reconstitution mixture containing 120 µL 10% egg yolk phospholipids in the form of sonicated liposomes prepared as previously described, 80 µL 10% Triton X-100 solution, 16 mM ATP, 7 µL of 500 mM Tris/HCl (pH 7.5) in a final volume of 700 μL.
Each HeLa cell sample or HeLa cell extract was incubated with 10 mM MβCD for 90 min at 37 °C under stirring. Then, the respective extracts were reconstituted in proteoliposomes.
Proteoliposomes (550 µL) were passed through a Sephadex G-75 column (0.7 cm diameter x 15 cm height) pre-equilibrated with 5 mM Tris/HCl (pH 7.5). […] Finally, each sample of proteoliposomes (100 µL) was passed through a Sephadex G-75 column (0.6 cm diameter × 8 cm height) in order to separate the external from the internal radioactivity. Liposomes were eluted with 1 mL of 50 mM NaCl and collected in 4ml of scintillation mixture, vortexed, and counted. […] For kinetic experiments the initial rate of transport expressed as nmol ⋅ min^−1 ⋅ mg protein^−1, was measured by stopping the reaction after 10 min, i.e., within the initial linear range of [^14C]-TEA or [^3H]-acetylcholine uptake into the proteoliposomes. […]

Data set [3] is described as follows: Enzymatic quantitation of cholesterol/CHS in proteoliposome lipids. Conditions: proteoliposomes with initial 8.3% CHS, 10 mM MβCD. On the procedure:
as §3
Quantitation was performed using the Cholesterol Quantitation Kit MAK043 by Merck Life Science s.r.l., 20149 Milan, Italy,). Assay was performed in the presence of cholesterol esterase with absorbance measured on a microplate reader at 570 nm.

For data set [4], the target named is T1, recombinant OCTN1. Nature of the data set: Immunodetection of OCTN1 incorporated in proteoliposomes (anti-His antibody).
Substrate in data set [5]: CC(=O)OCC[N+](C)(C)C
Put plainly: [3H]-acetylcholine uptake in proteoliposomes reconstituted with recombinant OCTN1 over-expressed in E. coli. The following applies: other: in the absence of CHS; pH 7.5. In kind it is biochemical, human. The protocol:
OCTN1 over-expressed in E. coli and purified as previously described was used for reconstitution in liposomes. The composition of the initial mixture used for reconstitution (except when differently indicated) was 200 µL of the purified protein (5 µg protein in 0.05% DDM), CHS at the indicated concentrations solubilized in 240 µL of 20 mM Tris/HCl (pH 7.5) and 5% Triton X-100 or buffer and Triton X-100 alone in the case of samples without CHS, 120 µL of 10% egg yolk phospholipids in the form of sonicated liposomes prepared as previously described, 16 mM ATP and (where indicated) in a final volume of 700 μL. […] Where indicated, proteoliposome internal volume was measured using a colorimetric phosphate method. […] At the end, absorbance from each sample was measured at 578 nm. […]
Proteoliposomes (550 µL) were passed through a Sephadex G-75 column (0.7 cm diameter x 15 cm height) pre-equilibrated with 5 mM Tris/HCl (pH 7.5). […] Finally, each sample of proteoliposomes (100 µL) was passed through a Sephadex G-75 column (0.6 cm diameter × 8 cm height) in order to separate the external from the internal radioactivity. Liposomes were eluted with 1 mL of 50 mM NaCl and collected in 4ml of scintillation mixture, vortexed, and counted. […]

On to `C[N+]1(C)CCOC(O)(c2ccc(-c3ccc(C4(O)C[N+](C)(C)CCO4)cc3)cc2)C1` (stereo not shown) [hemicholinium], for which the IC50 on recombinant OCTN1 [1] (in the absence of CHS) turned out to be 530 ± 46 µM; at recombinant OCTN1 [1] (in the presence of 8.3% CHS), 300 ± 52 µM.

Regarding `Nc1ncnc2c1ncn2[C@@H]1O[C@H](COP(=O)(O)OP(=O)(O)OP(=O)(O)O)[C@@H](O)[C@H]1O` [ATP], the “effect of intraliposomal ATP on transport” value on recombinant OCTN1 [2] (TEA uptake, 8.3% CHS) was “stimulated the transport”; on recombinant OCTN1 [1] (acetylcholine uptake, 8.3% CHS), “stimulated the transport”.

As for `[Na+]` [Na^+], the IC50 at recombinant OCTN1 [2] (in the presence of 8.3% CHS) turned out to be 1700 ± 500 µM; at recombinant OCTN1 [1] (in the presence of 8.3% CHS) it was 2200 ± 200 µM.

With `[Cl][Hg][Cl]` [HgCl2], the half-maximal inhibitory concentration (IC50) on recombinant OCTN1 [2] (in the absence of CHS) amounted to 270 ± 50 µM; at recombinant OCTN1 [2] (in the presence of 8.3% CHS), 200 ± 30 µM.

As for `CC[N+](CC)(CC)Cc1ccccc1` [TEBA, Benzyltriethylammonium], the figures for the half-inhibitory concentration (IC50) on recombinant OCTN1 [2] (in the absence of CHS) and on recombinant OCTN1 [2] (in the presence of 8.3% CHS) were 1600 ± 300 µM and 1900 ± 700 µM, respectively.

Regarding `CC[N+](CC)(CC)CC` [TEA, Tetraethylammonium], at recombinant OCTN1 [2], the Km was 900 µM and 800 µM; the Vmax of transport is 36.1 ± 8.6 nmol ⋅ min^−1 ⋅ mg protein^−1 and 66.6 ± 16.4 nmol ⋅ min^−1 ⋅ mg protein^−1.

For Methyl-beta-CycloDextrin [MβCD], the results for the “decrease of the native OCTN1 activity with respect to the control” value at native human OCTN1 (HeLa cell extract incubated with 10 mM MβCD prior to reconstitution) and at native human OCTN1 (HeLa cells incubated with 10 mM MβCD prior to solubilization) were 35% and 23%, respectively. At recombinant OCTN1 [2] (proteoliposomes with 8.3% CHS incubated with 10 mM MβCD, 0.1 mM [14C]-TEA), the “decrease in transport activity” value stood at 31%. Moreover, the “reduction of the initial CHS concentration” value in data set [3] amounted to 40%.

With `CC(C)CCC[C@@H](C)[C@H]1CC[C@H]2[C@@H]3CC=C4C[C@@H](OC(=O)CCC(=O)O)CC[C@]4(C)[C@H]3CC[C@]12C` [CHS, Cholesteryl HemiSuccinate], on recombinant OCTN1 [2] (8.3% CHS (83 µg CHS/mg total lipids), 0.1 mM [14C]-TEA), the “transport of TEA relative to control (without added cholesterol)” value is reported as “about double the control”. Moreover, the “CHS amount giving optimal transport activity” value at recombinant OCTN1 [2] ([14C]-tetraethylamonium uptake) and at recombinant OCTN1 [1] ([3H]-acetylcholine uptake) was 83 µg CHS/ mg total lipids throughout. Further, the “transport of acetylcholine relative to control (without added cholesterol)” value at recombinant OCTN1 [1] (8.3% CHS (83 µg CHS/mg total lipids), 0.1 mM [3H]-acetylcholine) is “about double the control”. Moreover, the results for the “relative concentration of immuno-stained OCTN1, normalized to 0% CHS (100%)” value at recombinant OCTN1 [4] (2.1% CHS), on recombinant OCTN1 [4] (4.2% CHS) and at recombinant OCTN1 [4] (8.3% CHS) were 109 ± 14%, 104 ± 5.8% and 106 ± 9.1%, respectively.

B1: human recombinant OCTN1 (Homo sapiens) (protein)
chain: T1 sequence (Q9H015 1-551)
notes: made in house; host or cells: E. coli
Regarding B1, in data set [5], the Michaelis-Menten constant (Km) was determined as 1100 ± 370 µM and the Vmax is 49.3 ± 12.4 nmol ⋅ min^−1 ⋅ mg protein^−1.
